For one assay, the system named is NIH3T3 cell. The experiment in a line: MTT cytotoxicity against NIH3T3 cells. The conditions noted are these: Mus musculus, read-out: MTT assay against NIH3T3 cell (IC50/nM). Format: cell-based.
A further assay addresses T1, wild-type EGFR kinase (Homo sapiens, UniProt P00533).
T1 construct: purchased Invitrogen PV3872
The assay can be described thus: z-lyte inhibition test against wild-type EGFR kinase.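 Further: reaction volume 10 µL holding 0.8 ng/µL enzyme and 2 µM Tyr04 substrate, with DMSO at 2% once compounds are present.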 It counts as biochemical. The conditions noted are these: 10 μM ATP, read-out: EGFR WT (IC50/nM).

The next assay deals with A431 cells. The assay can be described thus: ELISA assay for cell activity, EGF-treated A431 cells.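 Further: Serum-starved A431 cells, ELISA on lysates read as OD450 minus OD570, inhibition scaled between EGF-stimulated wells (0%) and unstimulated cell control (100%), DMSO 0.5% final.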 The conditions noted are these: Homo sapiens, A-431, compound 1 h, then EGF 45 min. It counts as cell-based.
In a further assay the test system is H1975 cells. The assay can be described thus: ELISA assay for cell activity of EGFR T790M inhibitor, H1975 cells. The conditions noted are these: for Selective inhibitory activities against cell [IC50(A431 cell)/IC50(H1975 cell)]: ELISA, ratio of cell IC50 values; for IC50: Homo sapiens, NCI-H1975, 1 h, read-out: H1975 cell (IC50/nM).
The next assay concerns H1975 cell. The experiment in a line: MTT cytostatic activity, H1975 cell.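 Further: cells in 96-well plates exposed to compound for 72 h, then given MTT for a further 4 h at 37 °C under 5% CO2.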 Format: cell-based. The conditions noted are these: Homo sapiens, NCI-H1975, 72 h, read-out: H1975 cell (IC50/nM).
[1] abbreviates: NIH3T3, cytotoxicity, MTT, 72 h.

Read-outs that look alike come from different tables or passages of the source. A value given as a limit tells only on which side of the number the result lay.

T1 sequence (P00533 25-1210): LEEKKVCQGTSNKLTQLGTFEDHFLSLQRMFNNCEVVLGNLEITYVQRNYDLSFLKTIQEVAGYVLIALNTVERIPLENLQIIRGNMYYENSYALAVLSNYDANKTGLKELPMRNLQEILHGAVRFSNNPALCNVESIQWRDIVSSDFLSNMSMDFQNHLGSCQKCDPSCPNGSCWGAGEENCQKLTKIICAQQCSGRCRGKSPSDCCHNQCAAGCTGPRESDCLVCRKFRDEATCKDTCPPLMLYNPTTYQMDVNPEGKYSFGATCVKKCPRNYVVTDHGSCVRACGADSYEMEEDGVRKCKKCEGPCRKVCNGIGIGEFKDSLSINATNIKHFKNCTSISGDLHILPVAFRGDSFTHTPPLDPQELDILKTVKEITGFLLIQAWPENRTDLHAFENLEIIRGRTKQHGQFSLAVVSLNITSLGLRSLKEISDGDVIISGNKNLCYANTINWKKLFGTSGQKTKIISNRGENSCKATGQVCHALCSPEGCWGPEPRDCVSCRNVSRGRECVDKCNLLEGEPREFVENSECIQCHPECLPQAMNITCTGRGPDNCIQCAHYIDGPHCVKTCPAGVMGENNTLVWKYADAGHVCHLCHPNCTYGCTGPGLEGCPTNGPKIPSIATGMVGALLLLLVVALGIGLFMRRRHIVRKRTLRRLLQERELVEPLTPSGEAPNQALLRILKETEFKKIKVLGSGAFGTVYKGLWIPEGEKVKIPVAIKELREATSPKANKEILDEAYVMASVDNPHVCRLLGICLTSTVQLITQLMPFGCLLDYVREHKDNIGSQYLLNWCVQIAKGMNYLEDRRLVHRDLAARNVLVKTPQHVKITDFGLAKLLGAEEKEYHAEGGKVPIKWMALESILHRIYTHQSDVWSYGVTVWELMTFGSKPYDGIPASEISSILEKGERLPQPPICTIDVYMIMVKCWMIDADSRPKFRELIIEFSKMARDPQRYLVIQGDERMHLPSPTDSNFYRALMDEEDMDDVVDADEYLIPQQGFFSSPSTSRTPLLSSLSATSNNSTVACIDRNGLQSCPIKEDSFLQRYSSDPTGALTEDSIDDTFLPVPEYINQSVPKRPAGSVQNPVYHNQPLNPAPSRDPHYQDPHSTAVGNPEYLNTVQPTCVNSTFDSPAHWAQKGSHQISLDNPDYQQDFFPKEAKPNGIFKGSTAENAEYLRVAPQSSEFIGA

Take `C=CC(=O)Nc1cc(Nc2ncc(Cl)c(O[C@H]3CCCN(S(C)(=O)=O)C3)n2)c(OC)cc1N1CCC(N(C)C)CC1` [Compound J-42]: in the assay on NIH3T3 cell (setting [1]), the IC50 is over 10000 nM.

`C=CC(=O)Nc1cc(Nc2ncc(Cl)c(OC3(C)CN(S(C)(=O)=O)C3)n2)c(OC)cc1N1CCC(N(C)C)CC1` [Compound J-75]: the IC50 was 463 nM on wild-type EGFR kinase, over 10000 nM in the assay with A431 cells and 438 nM in the assay on H1975 cells. Further, the “Selective inhibitory activities against cell [IC50(A431 cell)/IC50(H1975 cell)]” value (“Selective inhibitory activities” for short) with H1975 cells is over 22.8.

For the molecule `C=CC(=O)Nc1cc(Nc2nccc(OC3CN(C(=O)c4ccc(C)cc4)C3)n2)c(OC)cc1N1CCC(N(C)C)CC1` [Compound J-24], the IC50 at wild-type EGFR kinase was 119 nM; with NIH3T3 cell (setting [1]), 6000 nM.

In the case of `C=CC(=O)Nc1cc(Nc2nccc(OC3CCN(C(=O)OC(C)(C)C)CC3)n2)c(OC)cc1N1CCC(N(C)C)CC1` [Compound J-2, tert-butyl 4-(2-(5-acrylamido-4-(4-(dimethylamino)piperidine-1-yl)-2-methoxyphenylamino)pyrimidine-4-oxy)piperidine-1-formate], the IC50 at wild-type EGFR kinase is 154 nM.

Take `C=CC(=O)Nc1cc(Nc2nccc(OC3CN(C(=O)c4ccccc4)C3)n2)c(OC)cc1N1CCC(N(C)C)CC1` [Compound J-8, N-(5-(4-(1-benzoylaza-3-oxy)pyrimidine-2-amino)-2-(4-(dimethylamino)piperidine-1-yl)-4-methoxylphenyl)acrylamide]: the IC50 in the assay on NIH3T3 cell (setting [1]) is over 10000 nM.

For the molecule `C=CC(=O)Nc1cc(Nc2ncc(Cl)c(OC3CCN(S(C)(=O)=O)CC3)n2)c(OC)cc1N(C)CCN(C)C` [Compound J-3, N-(5-(5-chloro-4-(1-(methylsulfonyl)piperidine-4-oxy)pyrimidine-2-amino)-2-((2-(dimethylamino)ethyl)(methyl)amino)-4-methoxylphenyl) acrylamide], the figures for the IC50 on wild-type EGFR kinase and in the assay with NIH3T3 cell (setting [1]) were 38 nM and over 10000 nM, respectively.

Regarding `C=CC(=O)Nc1cc(Nc2ncc(F)c(NC3CN(S(C)(=O)=O)C3)n2)c(OC)cc1N1CCC(N(C)C)CC1` [Compound J-62], the IC50 is 6 nM on wild-type EGFR kinase and over 10000 nM in the assay on NIH3T3 cell (setting [1]).

Take `C=CC(=O)Nc1cc(Nc2ncc(Cl)c(N[C@H]3CCCN(CCF)C3)n2)c(OC)cc1N1CCC(N(C)C)CC1` [Compound J-68]: the IC50 on wild-type EGFR kinase stood at 41 nM; in the assay with NIH3T3 cell (setting [1]) it was 7600 nM; in the assay on A431 cells, 388 nM; with H1975 cells it was 48 nM. Besides, the “Selective inhibitory activities” value with H1975 cells was determined as 8.1.

Consider `C=CC(=O)Nc1cc(Nc2ncc(Cl)c(NC3CC3)n2)c(OC)cc1N1CCC(N(C)C)CC1` [Compound J-74], for which the IC50 amounted to 216 nM on wild-type EGFR kinase, 2030 nM in the assay with A431 cells and 264 nM in the assay on H1975 cells. For the same molecule, the “Selective inhibitory activities” value with H1975 cells stood at 7.7.

For `C=CC(=O)Nc1cc(Nc2nccc(OC3CN(CCF)C3)n2)c(OC)cc1N(C)CCN(C)C` [Compound J-53, N-(2-((2-(dimethylamino)ethyl)(methyl)amino)-5-(4-(1-(2-fluroethyl)azetidine-3-oxy)pyrimidine-2-amino)-4-methoxyphenyl) acrylamide], the IC50 was over 10000 nM in the assay with NIH3T3 cell (setting [1]), 225 nM in the assay on A431 cells and 30 nM with H1975 cells. Further, the “Selective inhibitory activities” value with H1975 cells came out at 7.5.

Consider `C=CC(=O)Nc1cc(Nc2ncc(Cl)c(N[C@@H]3CCCN(CCF)C3)n2)c(OC)cc1N1CCC(N(C)C)CC1` [Compound J-67], for which the IC50 at wild-type EGFR kinase is 2 nM.

Consider `CN(C)C/C=C/C(=O)Nc1cc2c(Nc3ccc(F)c(Cl)c3)ncnc2cc1O[C@H]1CCOC1` [BIBW2992, Afatinib, reference compound], for which the IC50 in the assay with H1975 cell was 88 nM; in the assay on NIH3T3 cell (NIH3T3, 72 h), 2750 nM.

Take `C=CC(=O)Nc1cc(Nc2ncc(F)c(O[C@H]3CCN(S(C)(=O)=O)C3)n2)c(OC)cc1N1CCC(N(C)C)CC1` [Compound J-52]: the IC50 on wild-type EGFR kinase was 47 nM; in the assay with NIH3T3 cell (setting [1]), over 10000 nM; with A431 cells it was 700 nM; in the assay on H1975 cells, 47 nM. The “Selective inhibitory activities” value in the assay on H1975 cells is on record as 15.

In the case of `C=CC(=O)Nc1cc(Nc2ncc(Cl)c(NC3CCN(S(C)(=O)=O)CC3)n2)c(OC)cc1N1CCC(N(C)C)CC1` [Compound J-69], the IC50 was 105 nM on wild-type EGFR kinase and over 10000 nM in the assay with NIH3T3 cell (setting [1]).

For `C=CC(=O)Nc1cc(Nc2ncc(F)c(O[C@@H]3CCN(C(C)=O)C3)n2)c(OC)cc1N1CCC(N(C)C)CC1` [Compound J-49], the IC50 at wild-type EGFR kinase was determined as 259 nM.

In the case of `C=CC(=O)Nc1cc(Nc2ncc(F)c(O[C@@H]3CCN(S(C)(=O)=O)C3)n2)c(OC)cc1N1CCC(N(C)C)CC1` [Compound J-51], the IC50 is 26 nM on wild-type EGFR kinase, over 10000 nM in the assay with NIH3T3 cell (setting [1]), 937 nM in the assay with A431 cells and 64 nM in the assay on H1975 cells. Also, the “Selective inhibitory activities” value with H1975 cells worked out at 15.

As to `C=CC(=O)Nc1cc(Nc2nccc(OC3CN(c4cnc5c(ccn5C)c4)C3)n2)c(OC)cc1N(C)CCN(C)C` [Compound J-16], in the assay on NIH3T3 cell (setting [1]), the IC50 is over 10000 nM.

Take `C=CC(=O)Nc1cc(Nc2nccc(OC3CN(C(=O)c4ccc(F)cc4)C3)n2)c(OC)cc1N(C)CCN(C)C` [Compound J-21]: the IC50 in the assay with NIH3T3 cell (setting [1]) is over 10000 nM.

For `C=CC(=O)Nc1cc(Nc2ncc(Cl)c(OC3CN(S(C)(=O)=O)C3)n2)ccc1N1CCC(N(C)C)CC1` [Compound J-76], the IC50 on wild-type EGFR kinase was 14 nM.

For `C=CC(=O)Nc1cc(Nc2ncc(Cl)c(OCC3CN(S(C)(=O)=O)C3)n2)c(OC)cc1N1CCC(N(C)C)CC1` [Compound J-34], the IC50 at wild-type EGFR kinase was 113 nM; with NIH3T3 cell (setting [1]) it was over 10000 nM.

Turning to `C=CC(=O)Nc1cc(Nc2nccc(OC3CN(C(C)=O)C3)n2)c(OC)cc1N(C)CCN(C)C` [Compound J-23], the IC50 was 32 nM at wild-type EGFR kinase and over 10000 nM in the assay with NIH3T3 cell (setting [1]).

For the molecule `C=CC(=O)Nc1cc(Nc2nccc(OC3CN(c4cnc5c(cnn5C)c4)C3)n2)c(OC)cc1N1CCC(N(C)C)CC1` [Compound J-19], the IC50 with NIH3T3 cell (setting [1]) was over 10000 nM.

As to `C=CC(=O)Nc1cc(Nc2nccc(OC3CN(S(=O)(=O)c4ccccc4)C3)n2)c(OC)cc1N1CCC(N(C)C)CC1` [Compound J-9, N-(2-(4-(dimethylamino)piperidine-1-yl)-4-methoxy-5-(4-(1-(phenylsulfonyl)azetidine-3-oxy)pyrimidino)phenyl)acrylamide], the IC50 on wild-type EGFR kinase is 72 nM; in the assay on NIH3T3 cell (setting [1]) it was over 10000 nM.

On to `C=CC(=O)Nc1cc(Nc2nccc(OC3CN(c4cnc5c(cnn5C)c4)C3)n2)c(OC)cc1N(C)CCN(C)C` [Compound J-15], for which the IC50 in the assay with NIH3T3 cell (setting [1]) is over 10000 nM; with A431 cells, 835 nM; in the assay with H1975 cells it was 75 nM. For the same molecule, the “Selective inhibitory activities” value with H1975 cells worked out at 11.1.

As for `C=CC(=O)Nc1cc(Nc2nccc(OC3CN(c4cnc5ccccc5c4)C3)n2)c(OC)cc1N(C)CCN(C)C` [Compound J-14, N-(2-((2-(dimethylamino)ethyl)(methyl)amino)-4-methoxy-5-(4-(1-(quinoline-3-yl)azetidine-3-oxy)pyrimidine-2-amino)phenyl)acrylamide], the IC50 in the assay with NIH3T3 cell (setting [1]) is over 10000 nM.

As for `C=CC(=O)Nc1cc(Nc2ncc(Cl)c(OCC3CN(C(C)=O)C3)n2)c(OC)cc1N1CCC(N(C)C)CC1` [Compound J-33], the values for the IC50 on wild-type EGFR kinase and in the assay with NIH3T3 cell (setting [1]) were 597 nM and over 10000 nM, respectively.

As for `C=CC(=O)Nc1cc(Nc2ncc(Cl)c(NC3CN(C(C)=O)C3)n2)c(OC)cc1N1CCC(N(C)C)CC1` [Compound J-61], the results for the IC50 on wild-type EGFR kinase and in the assay on NIH3T3 cell (setting [1]) were 181 nM and over 10000 nM, respectively.

On to `C=CC(=O)Nc1cc(Nc2ncc(C#N)c(OC3CN(S(C)(=O)=O)C3)n2)c(OC)cc1N1CCC(N(C)C)CC1` [Compound J-32], for which the IC50 on wild-type EGFR kinase is 11 nM; in the assay with NIH3T3 cell (setting [1]) it was over 10000 nM.

`C=CC(=O)Nc1cc(Nc2nccc(OC3CN(C(=O)c4ccccc4)C3)n2)c(OC)cc1N(C)CCN(C)C` [Compound J-6]: the IC50 in the assay on NIH3T3 cell (setting [1]) is over 10000 nM.

In the case of `C=CC(=O)Nc1cc(Nc2nccc(OC3CN(C(=O)c4ccc(C)cc4)C3)n2)c(OC)cc1N(C)CCN(C)C` [Compound J-22], the IC50 in the assay with NIH3T3 cell (setting [1]) is over 10000 nM.

On to `C=CC(=O)Nc1cc(Nc2nccc(OC3CCN(S(C)(=O)=O)CC3)n2)c(OC)cc1N(C)CCN(C)C` [Compound J-4, N-(2-((2-(dimethylamino)ethyl)(methyl)amino)-4-methoxy-5-(4-(1-(methylsulfonyl)piperidine-4-oxy)pyrimidine-2-amino)phenyl) acrylamide], for which the results for the IC50 on wild-type EGFR kinase and in the assay with NIH3T3 cell (setting [1]) were 52 nM and over 10000 nM, respectively.

In the case of `C=CC(=O)Nc1cc(Nc2ncc(Cl)c(N(C)C3CN(S(C)(=O)=O)C3)n2)c(OC)cc1N1CCC(N(C)C)CC1` [Compound J-73], the IC50 was 24 nM at wild-type EGFR kinase, over 10000 nM in the assay with NIH3T3 cell (setting [1]), 494 nM in the assay with A431 cells and 26 nM with H1975 cells. Further, the “Selective inhibitory activities” value in the assay on H1975 cells stood at 19.

As to `C=CC(=O)Nc1cc(Nc2nccc(OC3CCN(S(C)(=O)=O)CC3)n2)c(OC)cc1N1CCC(N(C)C)CC1` [Compound J-5, N-(2-(4-(dimethylamino)piperidine-1-yl)-4-methoxy-5-(4-(1-(methylsulfonyl)piperidine-4-oxy)pyrimidine-2-amino)phenyl)acrylamide], the IC50 at wild-type EGFR kinase is 51 nM; with NIH3T3 cell (setting [1]), over 10000 nM.
